Test results taken from US8883963B2 (Cadila Healthcare Limited, priority 2007, dated 2014).
Non-standard residues stand in square brackets, D forms with d. Residues, ends and D or L forms follow the SMILES beside them. ξ: configuration not given here. *: point of attachment. X5 = CCc1cc(OC)ccc1-c1ccc(CC(N*)C(=S)NC(CCCc2ccccc2F)C(N)=O)cc1; Leu(5,5,5,5',5',5'-F6) = N[C@@H](CC(C(F)(F)F)C(F)(F)F)C(=O)O; ξBip(2'-Et-4'-OMe) = CCc1cc(OC)ccc1-c1ccc(CC(N)C(=O)O)cc1; ξNva(5-(3,5-Me2-Ph)) = Cc1cc(C)cc(CCCC(N)C(=O)O)c1; ξαMePhe(2-F) = CC(N)(Cc1ccccc1F)C(=O)O; aThr = C[C@H](O)[C@H](N)C(=O)O; Ac5c = NC1(C(=O)O)CCCC1; Aib = CC(C)(N)C(=O)O

Experiments:
[1] = test system: RIN5F (Rat Insulinoma) cells; assay: In vitro glucose-dependent insulin secretion (RIN5F cell assay screening protocol); type: cell-based; details: 16.7 mM glucose load
Protocol: RIN5F (Rat Insulinoma) cells were cultured in RPMI 1640 medium supplemented with sodium pyruvate (1 mM) HEPES and Glucose (4.5 g/L) in a humidified incubator (5% CO2), at 37° C. After trypsinization, RIN5F cells were seeded at a concentration of 0.2×10^6 cells per well, in 12 well plates.
The buffer was replaced after 40 min. and the cells were incubated (37° C.) with the test peptidomimetics, at different concentration, for 30 min., both in the presence (16.7 mM) and absence (0 mM) of glucose load. The supernatant was collected and the insulin amount was measured by ultra sensitive Rat insulin ELISA kit (Crystal Chem, IL). The protein was estimated in the supernatant using Bicinchoninic Acid kit, according to the manufacturer's protocol (Sigma Aldrich, MO). The total insulin content obtained in Pico-gram (pg) was divided with the total protein (μg) in order to normalize for differences in cell density between wells.

[2] = target: T1, human glucagon receptor (Homo sapiens, UniProt P47871); assay: In vitro human glucagon antagonist activity (inhibition of cAMP production) in CHO/human glucagon R cells; type: cell-based; details: with saturated concentration of glucagon peptide
T1 construct: The full-length cDNA was cloned in pcDNA3.1 (Invitrogen); expressed in transfected cells
Protocol: The CHO-K1 cells (CRL 9618) were obtained from American Type Culture Collection (Rockville, Md.). CHO cells were grown in Ham's F12 medium containing L-Glutamine (2 mM), HEPES (25 mM), NaHCO3 (1.1 g/L) and supplemented with newborn Calf Serum (NBCS; 10%), Penicillin (50 U/ml (v/v)) and Streptomycin (50 ug/ml (v/v)). Cells were split every 3 days 1:8.
The full-length cDNA was cloned in pcDNA3.1 (Invitrogen). […] Clones expressing the receptor were generated by G418 (800 μg/ml active, Sigma) selection. The stable clones were thereafter maintained at 500 ug/ml (G418). The selected clone was used between passages 9-25 for cAMP assays.
The cells were trypsinized using 2 ml of TPVG (0.25% trypsin, 0.53 mM EDTA, 1.38-mM glucose). The trypsin was inactivated using Ham's F12 medium containing 10% NBCS and the cells were suspended in 2 ml of complete medium. […] The medium was aspirated off from the 12 well plate and the cells were washed once using Ham's F12 (plain). The cells were incubated at 37° C. with 500 ul of Ham's F12+1% BSA+0.125 mM RO-20 for 30 min. […] After the incubation, the medium was removed and cells were washed once with plain Ham's F12. Subsequently, the cells were lysed by adding 500 ul of ice cold 0.1 N HCl to each well and shaking for 30 minutes at 200 rpm. The cells were then scrapped, the lysate was collected in micro centrifuge tubes and centrifuged at 12000 rpm for 10 min to remove the debris. 300 ul of supernatant from each micro-centrifuge tube was then removed into a glass tube and dried under N2 for 30 min, for cAMP estimation. The total cAMP was estimated from the sample according to the manufacturer's protocol using Cyclic AMP immunoassay kit (R&D systems, Minneapolis. MN). The remaining supernatant is used to determine the protein concentration using micro BCA (Sigma). Data is calculated as percent of control (Vehicle: water) and expressed as Mean+SD.

T1 sequence (P47871 26-477): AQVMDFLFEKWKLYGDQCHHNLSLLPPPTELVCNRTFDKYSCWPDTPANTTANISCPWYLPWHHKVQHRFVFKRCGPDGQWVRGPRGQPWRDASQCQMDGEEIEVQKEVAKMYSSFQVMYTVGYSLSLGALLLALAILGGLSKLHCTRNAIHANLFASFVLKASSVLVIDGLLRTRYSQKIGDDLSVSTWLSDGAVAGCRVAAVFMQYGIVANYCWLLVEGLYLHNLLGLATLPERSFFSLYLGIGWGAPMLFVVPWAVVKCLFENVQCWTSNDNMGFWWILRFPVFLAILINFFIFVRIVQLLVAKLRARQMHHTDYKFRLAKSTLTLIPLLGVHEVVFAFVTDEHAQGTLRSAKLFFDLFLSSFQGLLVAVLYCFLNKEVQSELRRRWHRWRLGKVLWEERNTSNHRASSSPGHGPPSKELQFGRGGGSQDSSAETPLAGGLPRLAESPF

Compound: CCc1cc(OC)ccc1-c1ccc(CC(NC(=O)[C@H](CC(=O)O)NC(=O)[C@H](CO)NC(=O)[C@@H](NC(=O)C(C)(Cc2ccccc2F)NC(=O)[C@@H](NC(=O)CNC(=O)[C@H](CCC(N)=O)NC(=O)C(C)(C)NC(=O)[C@@H](N)Cc2c[nH]cn2)[C@@H](C)O)[C@@H](C)O)C(=O)NC(CCCc2ccc(Cl)cc2C)C(N)=O)cc1 (single isomer, unassigned) [compound 40]
- Insulin secretion ([1]; 0.1 nM test compd.): 12.6 ± 0.20 pg/µg/h
- Insulin secretion ([1]; 1 nM test compd.): 15.9 ± 0.31 pg/µg/h
- Insulin secretion ([1]; 10 nM test compd.): 28.4 ± 0.11 pg/µg/h
- Human Glucagon receptor antagonistic activity shown as inhibition of cAMP production of Glucagon peptide ([2]; 1 nM test compound): 18 ± 0.07 pmol/ml/μg prt
- Human Glucagon receptor antagonistic activity shown as inhibition of cAMP production of Glucagon peptide ([2]; 10 nM test compound): 16 ± 0.01 pmol/ml/μg prt
- Human Glucagon receptor antagonistic activity shown as inhibition of cAMP production of Glucagon peptide ([2]; 100 nM test compound): 12 ± 0.03 pmol/ml/μg prt
- Human Glucagon receptor antagonistic activity shown as inhibition of cAMP production of Glucagon peptide ([2]; 1 μM test compound): 8 ± 0.02 pmol/ml/μg prt
- Human Glucagon receptor antagonistic activity shown as inhibition of cAMP production of Glucagon peptide ([2]; 10 μM test compound): 6 ± 0.08 pmol/ml/μg prt

Compound: CCc1cc(OC)ccc1-c1ccc(CC(NC(=O)[C@H](CC(=O)O)NC(=O)[C@H](CO)NC(=O)[C@@H](NC(=O)C(C)(Cc2ccccc2F)NC(=O)[C@@H](NC(=O)CNC(=O)[C@H](CC(C(F)(F)F)C(F)(F)F)NC(=O)C(C)(C)NC(=O)[C@@H](N)Cc2c[nH]cn2)[C@@H](C)O)[C@@H](C)O)C(=O)NC(CCCc2ccc(Cl)cc2C)C(N)=O)cc1 (single isomer, unassigned) [compound 237]
- Insulin secretion ([1]; 0.1 nM test compd.): 12.0 ± 0.14 pg/µg/h
- Insulin secretion ([1]; 1 nM test compd.): 14.3 ± 0.12 pg/µg/h
- Insulin secretion ([1]; 10 nM test compd.): 27.8 ± 0.32 pg/µg/h
- Human Glucagon receptor antagonistic activity shown as inhibition of cAMP production of Glucagon peptide ([2]; 1 nM test compound): 21 ± 0.11 pmol/ml/μg prt
- Human Glucagon receptor antagonistic activity shown as inhibition of cAMP production of Glucagon peptide ([2]; 10 nM test compound): 19 ± 0.02 pmol/ml/μg prt
- Human Glucagon receptor antagonistic activity shown as inhibition of cAMP production of Glucagon peptide ([2]; 100 nM test compound): 18 ± 0.07 pmol/ml/μg prt
- Human Glucagon receptor antagonistic activity shown as inhibition of cAMP production of Glucagon peptide ([2]; 1 μM test compound): 18 ± 0.03 pmol/ml/μg prt
- Human Glucagon receptor antagonistic activity shown as inhibition of cAMP production of Glucagon peptide ([2]; 10 μM test compound): 16 ± 0.02 pmol/ml/μg prt

Compound: CCc1cc(OC)ccc1-c1ccc(CC(NC(=O)[C@H](CC(=O)O)NC(=O)[C@H](CO)NC(=O)[C@@H](NC(=O)[C@H](Cc2ccccc2)NC(=O)[C@@H](NC(=O)CNC(=O)[C@H](CCC(N)=O)NC(=O)C2(NC(=O)[C@@H](N)Cc3c[nH]cn3)CCCC2)[C@@H](C)O)[C@@H](C)O)C(=O)NC(CCCc2cc(C)cc(C)c2)C(N)=O)cc1 (stereo partly drawn) [compound 26] (H-H[Ac5c]QGTFTSD[ξBip(2'-Et-4'-OMe)][ξNva(5-(3,5-Me2-Ph))]-NH2)
- Insulin secretion ([1]; 0.1 nM test compd.): 16.6 ± 0.41 pg/µg/h
- Insulin secretion ([1]; 1 nM test compd.): 22.9 ± 0.32 pg/µg/h
- Insulin secretion ([1]; 10 nM test compd.): 36.6 ± 0.19 pg/µg/h
- Human Glucagon receptor antagonistic activity shown as inhibition of cAMP production of Glucagon peptide ([2]; 1 nM test compound): 15 ± 0.11 pmol/ml/μg prt
- Human Glucagon receptor antagonistic activity shown as inhibition of cAMP production of Glucagon peptide ([2]; 10 nM test compound): 12 ± 0.13 pmol/ml/μg prt
- Human Glucagon receptor antagonistic activity shown as inhibition of cAMP production of Glucagon peptide ([2]; 100 nM test compound): 8 ± 0.09 pmol/ml/μg prt
- Human Glucagon receptor antagonistic activity shown as inhibition of cAMP production of Glucagon peptide ([2]; 1 μM test compound): 4 ± 0.01 pmol/ml/μg prt
- Human Glucagon receptor antagonistic activity shown as inhibition of cAMP production of Glucagon peptide ([2]; 10 μM test compound): 2 ± 0.08 pmol/ml/μg prt

Compound: CCc1cc(OC)ccc1-c1ccc(CC(NC(=O)[C@H](CC(=O)O)NC(=O)[C@H](CO)NC(=O)[C@@H](NC(=O)C(C)(Cc2ccccc2F)NC(=O)[C@@H](NC(=O)CNC(=O)[C@H](CC(C(F)(F)F)C(F)(F)F)NC(=O)C(C)(C)NC(=O)[C@@H](N)Cc2c[nH]cn2)[C@@H](C)O)[C@H](C)O)C(=O)NC(CCCc2ccccc2)C(N)=O)cc1 (single isomer, unassigned) [compound 225]
- Insulin secretion ([1]; 0.1 nM test compd.): 12.4 ± 0.22 pg/µg/h
- Insulin secretion ([1]; 1 nM test compd.): 15.2 ± 0.32 pg/µg/h
- Insulin secretion ([1]; 10 nM test compd.): 29.6 ± 0.50 pg/µg/h
- Human Glucagon receptor antagonistic activity shown as inhibition of cAMP production of Glucagon peptide ([2]; 1 nM test compound): 5 ± 0.01 pmol/ml/μg prt
- Human Glucagon receptor antagonistic activity shown as inhibition of cAMP production of Glucagon peptide ([2]; 10 nM test compound): 2 ± 0.17 pmol/ml/μg prt
- Human Glucagon receptor antagonistic activity shown as inhibition of cAMP production of Glucagon peptide ([2]; 100 nM test compound): 0 pmol/ml/μg prt
- Human Glucagon receptor antagonistic activity shown as inhibition of cAMP production of Glucagon peptide ([2]; 1 μM test compound): 0 pmol/ml/μg prt
- Human Glucagon receptor antagonistic activity shown as inhibition of cAMP production of Glucagon peptide ([2]; 10 μM test compound): 0 pmol/ml/μg prt

Compound: CCc1cc(OC)ccc1-c1ccc(CC(NC(=O)[C@H](CC(=O)O)NC(=O)[C@H](CO)NC(=O)[C@@H](NC(=O)C(C)(Cc2ccccc2F)NC(=O)[C@@H](NC(=O)CNC(=O)[C@H](CC(C(F)(F)F)C(F)(F)F)NC(=O)C(C)(C)NC(=O)[C@@H](N)Cc2c[nH]cn2)[C@H](C)O)[C@H](C)O)C(=S)NC(CCCc2ccccc2F)C(N)=O)cc1 (stereo partly drawn) [compound 218] (H-H[Aib][Leu(5,5,5,5',5',5'-F6)]G[aThr][ξαMePhe(2-F)][aThr]SD-X5)
- Insulin secretion ([1]; 0.1 nM test compd.): 12.3 ± 0.33 pg/µg/h
- Insulin secretion ([1]; 1 nM test compd.): 14.8 ± 0.16 pg/µg/h
- Insulin secretion ([1]; 10 nM test compd.): 28.1 ± 0.22 pg/µg/h
- Human Glucagon receptor antagonistic activity shown as inhibition of cAMP production of Glucagon peptide ([2]; 1 nM test compound): 9 ± 0.11 pmol/ml/μg prt
- Human Glucagon receptor antagonistic activity shown as inhibition of cAMP production of Glucagon peptide ([2]; 10 nM test compound): 6 ± 0.12 pmol/ml/μg prt
- Human Glucagon receptor antagonistic activity shown as inhibition of cAMP production of Glucagon peptide ([2]; 100 nM test compound): 5 ± 0.14 pmol/ml/μg prt
- Human Glucagon receptor antagonistic activity shown as inhibition of cAMP production of Glucagon peptide ([2]; 1 μM test compound): 3 ± 0.22 pmol/ml/μg prt
- Human Glucagon receptor antagonistic activity shown as inhibition of cAMP production of Glucagon peptide ([2]; 10 μM test compound): 0 pmol/ml/μg prt

Compound: CCc1cc(OC)ccc1-c1ccc(CC(CNC(CCCc2ccccc2F)C(N)=O)NC(=O)[C@H](CC(=O)O)NC(=O)[C@H](CO)NC(=O)[C@@H](NC(=O)C(C)(Cc2ccccc2F)NC(=O)[C@@H](NC(=O)CNC(=O)C(CCC#N)NC(=O)C(C)(C)NC(=O)[C@@H](N)Cc2c[nH]cn2)[C@H](C)O)[C@H](C)O)cc1 (single isomer, unassigned) [compound 192]
- Insulin secretion ([1]; 0.1 nM test compd.): 16.6 ± 0.41 pg/µg/h
- Insulin secretion ([1]; 1 nM test compd.): 22.9 ± 0.32 pg/µg/h
- Insulin secretion ([1]; 10 nM test compd.): 36.7 ± 0.11 pg/µg/h
- Human Glucagon receptor antagonistic activity shown as inhibition of cAMP production of Glucagon peptide ([2]; 1 nM test compound): 4 ± 0.09 pmol/ml/μg prt
- Human Glucagon receptor antagonistic activity shown as inhibition of cAMP production of Glucagon peptide ([2]; 10 nM test compound): 2 ± 0.12 pmol/ml/μg prt
- Human Glucagon receptor antagonistic activity shown as inhibition of cAMP production of Glucagon peptide ([2]; 100 nM test compound): 0 pmol/ml/μg prt
- Human Glucagon receptor antagonistic activity shown as inhibition of cAMP production of Glucagon peptide ([2]; 1 μM test compound): 0 pmol/ml/μg prt
- Human Glucagon receptor antagonistic activity shown as inhibition of cAMP production of Glucagon peptide ([2]; 10 μM test compound): 0 pmol/ml/μg prt
